Test results reported in ChEMBL document CHEMBL4765400, “Open and rearranged norbornane derived polycyclic cage molecules as potential neuroprotective agents through attenuation of MPP- and calcium overload-induced excitotoxicity in neuroblastoma SH-SY5Y cells” (Eur J Med Chem, 2020).
Activity calls are given as the source filed them. No cut-off for these calls is given here.

Columns and labels:
[1] = Displacement of [3H]MK801 from NMDA receptor in human brain by radioligand binding assay; type: tissue-based
[2] = tested on: SH-SY5Y; experiment: Antagonist activity at NMDA receptor in human SH-SY5Y cells assessed as inhibition of calcium influx at 10 uM by Fura-2AM dye based fluorescence analysis relative to control; type: cell-based
[3] = Cytotoxicity against human SH-SY5Y cells assessed as cell viability at 10 uM incubated for 24 hrs by MTT assay relative to control; type: cell-based; conditions: read-out: Activity
[4] = Cytotoxicity against human SH-SY5Y cells assessed as cell viability at 100 uM incubated for 24 hrs by MTT assay relative to control; type: cell-based; conditions: read-out: Activity
[5] = tested on: SH-SY5Y; experiment: Cytotoxicity against human SH-SY5Y cells assessed as reduction in cell viability at 10 to 100 uM incubated for 24 hrs by MTT assay; type: cell-based; conditions: dose 10-100 µM
[6] = tested on: SH-SY5Y; experiment: Blockade of VGCC in human SH-SY5Y cells assessed as inhibition of membrane depolarisation-induced calcium influx at 10 uM by Fura-2AM dye based fluorescence analysis relative to control; type: cell-based
[7] = tested on: SH-SY5Y; experiment: Neuroprotective activity against MPP+-induced neurotoxicity in human SH-SY5Y cells assessed as cell viability at 10 uM pretreated for 2 hrs followed by MPP+ challenge and measured after 24 hrs by MTT assay relative to control; type: functional; conditions: time 26 hrs, read-out: Activity
[8] = Displacement of [3H]MK801 from NMDA receptor (unknown origin) by radioligand binding assay; set-up: species or system Homo sapiens
[9] = Antagonist activity at NMDA receptor (unknown origin); set-up: species or system Homo sapiens
[10] = Displacement of [3H]MK801 from NMDA receptor in Sprague-Dawley rat cerebral cortical membrane incubated for 60 mins by liquid scintillation counting analysis; type: cell membranes, Cerebral cortex

Row | SMILES | inhibition ([2]; filed as antagonist) [%] | viability at 24 h, 10 µM [3] [%] | Activity [5] | inhibition [6] | viability at 10 µM [7] [%] | also measured
1 | CC12CC3CC(C)(C1)CC(N)(C3)C2 [MEMANTINE] |  |  |  |  |  | Ki [1]: 540 nM
2 | O[C@@H]1C[C@H]2CC[C@@H]1NC2 | 43.5 | 96.3 | Toxic | inactive | 28.3 | viability at 24 h, 100 µM [4]: 59%
3 | O=C1C=C[C@H](NN2CCCCC2)[C@@H]2[C@H]1[C@H]1C=C[C@@H]2C1 | 65.3 | 93.7 | Non-Toxic | 8.4% | 33.9 | 
4 | C1C2OC2[C@H]2[C@@H]1[C@H]1C[C@@H]2C2OC21 (stereo not given in full) | 53.3 | 94.4 | Toxic | 8.49% | 27.9 | 
5 | O=C1CCC(=O)[C@H]2[C@@H]1[C@H]1C=C[C@H]2C1 | 51 | 96.6 | Toxic | 25.4% | 40.6 | 
6 | O=C1CC[C@H](O)C2C3C=C[C@@H](C3)C12 (single isomer, unassigned) | 69.7 | 96.3 | Non-Toxic | 32.8% | 35 | 
7 | CN[C@@]1(c2ccccc2Cl)CCCCC1=O |  |  |  |  |  | Ki [8]: 659 nM
8 | O=C1C=C[C@H](NCc2ccccc2)[C@@H]2[C@H]1[C@H]1C=C[C@@H]2C1 |  | 108 | Toxic | 21.3% | 33.7 | inhibition [2]: 26.5%
9 | O=C1C=CC(=O)[C@H]2[C@@H]1[C@H]1C=C[C@H]2C1 | 43.8 | 97.7 | Toxic | 15% | 32.8 | 
10 | c1ccc(C2(N3CCCCC3)CCCCC2)cc1 [PHENCYCLIDINE] |  |  |  |  |  | Ki [8]: 59 nM
11 | O=C1C2C3C=CC(C3)C2C(=O)C2C3C=CC(C3)C12 (stereo not given) | 62.3 | 95.9 | Non-Toxic | 50.3% | 41.4 | 
12 | NC12CC3CC(CC(C3)C1)C2 [AMANTADINE] |  |  |  |  |  | Ki [9]: 10000 nM
13 | C[C@@]12N[C@@H](Cc3ccccc31)c1ccccc12 | 47.5 |  |  | inactive |  | Ki [10]: 37.2 nM
14 | C1=C[C@H]2CC[C@@H]1[C@H]1CNC[C@H]12 | 55.5 | 108 | Non-Toxic | 5.79% | 27.5 | 
15 | O=C1CC[C@H]2C[C@@H]1CCC2=O | 73 | 125 | Non-Toxic | inactive | 26.1 | 
16 | COCCOC(=O)C1=C(C)NC(C)=C(C(=O)OC(C)C)C1c1cccc([N+](=O)[O-])c1 (stereo not given) |  |  |  | 34.1% |  | inhibition [2]: inactive
